The values that follow come from US7078418B1, “1-aziridino-1-hydroxyiminomethyl-derivates, method for the production thereof and medicaments containing said compounds” (priority 1999, dated 2006).

For one experiment, the system named is HT29. In words: monolayer cytotoxicity test (modified propidium iodide assay), HT29. The conditions noted are these: for IC50 antitumoral activity: Colon. It is filed as cell-based. From the text: (§1) The compounds pursuant to the invention with the general formula I show antitumoral activity. The antitumoral activities of some compounds pursuant to the invention in the monolayer cytotoxicity test on selected cell lines are shown in Table 1. The low susceptibility of fibroblasts and endothelial cells with the use of the compounds pursuant to the invention is surprising.

The subject of another experiment is GXF 251L. Put plainly: monolayer cytotoxicity test (modified propidium iodide assay), GXF 251L. It counts as cell-based. To be noted: Stomach.
Excerpt: as §1

The next experiment deals with LXFL 529. Put plainly: monolayer cytotoxicity test (modified propidium iodide assay), LXFL 529. It counts as cell-based. To be noted: Lung.
Excerpt: as §1

In a further experiment the test system is 401 NL. In words: monolayer cytotoxicity test (modified propidium iodide assay), 401 NL. It counts as cell-based. To be noted: Breast.
Excerpt: as §1

The test system of another experiment is 944 LL. In words: monolayer cytotoxicity test (modified propidium iodide assay), 944 LL. It is filed as cell-based. To be noted: Kidney.
Excerpt: as §1

In another experiment the test system is 1138 L. In words: monolayer cytotoxicity test (modified propidium iodide assay), 1138 L. It is filed as cell-based. To be noted: Uterus.
Excerpt: as §1

Experiment [1] deals with 12 tumor cell lines (Table 3). Put plainly: cells. The conditions noted are these: read-out: mean IC50.
Experiment [2] concerns 12 tumor cell lines (Table 3). The conditions noted are these: mean over 12 cell lines of Table 3.
Where [3] appears, read: read-out: IC50 antitumoral activity.

Converted amounts (≈) assume the structure as drawn.

Turning to `O/N=C(/C(=N/O)N1CC1)N1CC1` [Compound 1, 1,1′-[1,2-bis(hydroxyimino)-1,2-ethanediyl]bisaziridine], the IC50 was determined as 0.486 µg/mL (≈ 2.86 µM) in the experiment on HT29 (Homo sapiens, HT-29, Colon, read-out: IC50 antitumoral activity); 0.781 µg/mL (≈ 4.59 µM) in the experiment with GXF 251L (setting [3]); 0.441 µg/mL (≈ 2.59 µM) with LXFL 529 (Homo sapiens, read-out: IC50 antitumoral activity); 0.04 µg/mL (≈ 0.235 µM) in the experiment with 401 NL (setting [3]); 0.923 µg/mL (≈ 5.42 µM) in the experiment on 944 LL (setting [3]); 0.173 µg/mL (≈ 1.02 µM) in the experiment on 1138 L (setting [3]).
Take `O=c1[nH]cc(F)c(=O)[nH]1` [Compound 5FU, 5-fluorouracil]: the IC50 in experiment [1] turned out to be 0.054 µg/mL (≈ 0.415 µM).
Regarding `ON=C(c1cccc(C(=NO)N2CC2)n1)N1CC1` [Compound 6, 2,6-Bis(1-aziridino-1-hydroxyiminomethyl)pyridine], the IC50 antitumoral activity in the experiment with HT29 turned out to be 0.117 µg/mL (≈ 0.473 µM); in the experiment with GXF 251L, 0.020 µg/mL (≈ 0.0809 µM); in the experiment on LXFL 529, 0.027 µg/mL (≈ 0.109 µM); with 401 NL, 0.207 µg/mL (≈ 0.837 µM); in the experiment with 944 LL, 0.115 µg/mL (≈ 0.465 µM); in the experiment on 1138 L it was 0.014 µg/mL (≈ 0.0566 µM). Further, the “mean IC50” value in experiment [2] is 0.030 µg/mL.
For `ON=C(c1ccc(C(=NO)N2CC2)cc1)N1CC1` [Compound 7, 1,4-Bis(1-aziridino-1-hydroxyiminomethyl)benzene], the IC50 antitumoral activity worked out at 0.258 µg/mL (≈ 1.05 µM) with HT29; 0.542 µg/mL (≈ 2.2 µM) with GXF 251L; 0.038 µg/mL (≈ 0.154 µM) with LXFL 529; 0.018 µg/mL (≈ 0.0731 µM) in the experiment on 401 NL; 0.348 µg/mL (≈ 1.41 µM) in the experiment on 944 LL; 0.038 µg/mL (≈ 0.154 µM) with 1138 L.
For the molecule `ON=C(c1cccc(C(=NO)N2CC2)c1)N1CC1` [Compound 9, 1,3-Bis(1-aziridino-1-hydroxyiminomethyl)benzene], the IC50 antitumoral activity was determined as 0.329 µg/mL (≈ 1.34 µM) with HT29; 1.506 µg/mL (≈ 6.12 µM) with GXF 251L; 0.063 µg/mL (≈ 0.256 µM) with LXFL 529; 0.060 µg/mL (≈ 0.244 µM) in the experiment on 401 NL; 0.788 µg/mL (≈ 3.2 µM) in the experiment with 944 LL; 0.066 µg/mL (≈ 0.268 µM) in the experiment with 1138 L.
Regarding `ON=C(c1cc(C(=NO)N2CC2)cc(C(=NO)N2CC2)c1)N1CC1` [Compound 10, 1,3,5-Tris(1-aziridino-1-hydroxyiminomethyl)benzene], the IC50 antitumoral activity was 0.670 µg/mL (≈ 2.03 µM) in the experiment with HT29; 3.964 µg/mL (≈ 12 µM) in the experiment on GXF 251L; 0.100 µg/mL (≈ 0.303 µM) in the experiment on LXFL 529; 0.043 µg/mL (≈ 0.13 µM) with 401 NL; 0.750 µg/mL (≈ 2.27 µM) in the experiment with 944 LL; 0.111 µg/mL (≈ 0.336 µM) in the experiment on 1138 L.
Regarding `ON=C(c1ccc(C(=NO)N2CC2)nc1)N1CC1` [Compound 14, 2,5-Bis(1-aziridino-1-hydroxyiminomethyl)pyridine], the IC50 antitumoral activity in the experiment with HT29 is 0.200 µg/mL (≈ 0.809 µM); in the experiment with GXF 251L it was 0.717 µg/mL (≈ 2.9 µM); with LXFL 529, 0.006 µg/mL (≈ 0.0243 µM); in the experiment with 401 NL, 0.011 µg/mL (≈ 0.0445 µM); with 944 LL, 0.198 µg/mL (≈ 0.801 µM); with 1138 L, 0.034 µg/mL (≈ 0.138 µM).
As for `ON=C(c1ccc(C(=NO)N2CC2)o1)N1CC1` [Compound 16, 2,5-Bis(1-aziridino-1-hydroxyiminomethyl)furan], the IC50 antitumoral activity in the experiment on HT29 is 0.481 µg/mL (≈ 2.04 µM); with GXF 251L, 1.661 µg/mL (≈ 7.03 µM); in the experiment with LXFL 529, 0.099 µg/mL (≈ 0.419 µM); with 401 NL it was 0.039 µg/mL (≈ 0.165 µM); with 944 LL, 1.359 µg/mL (≈ 5.75 µM); in the experiment with 1138 L it was 0.073 µg/mL (≈ 0.309 µM).
